In publication PMC8145107 (Pharmaceutics, 2021):

Tests used:
CYP450 2C19 = CYP450 2C19 (Homo sapiens, UniProt P33261); assay: CYP450 enzyme inhibition, 2C19; type: in vitro ADME; conditions: compound 0.05~50 μM; read-out: IC50 against CYP450 isotype 2C19
Procedure: Permeability was evaluated with a parallel artificial membrane permeability (PAMPA) assay using an artificially generated lipid-infused membrane.

HSP27 = tested on: T1, HSP27; assay: HSP27 cross-linking in NCI-H460 cells (Western blot); type: cell-based, human; conditions: 0-20 μM, 24 h
T1 construct: endogenous in cells; host or cells: NCI-H460
Procedure: For polyacrylamide gel electrophoresis (PAGE) and Western blot (WB) analysis, cells were lysed with radioimmunoprecipitation assay (RIPA) buffer (50 mM Tris-HCl [pH 7.5], 150 mM NaCl, 1% NP-40, 0.1% sodium dodecyl sulfate (SDS), and 1% sodium deoxycholate) supplemented with 1 mM Na3VO4, 1 mM dithiothreitol (DTT), 1 mM phenyl-methyl-sulfonyl fluoride (PMSF), and protease inhibitor cocktail (Calbiochem). The samples were boiled for 5 min, and equal amounts of protein were analyzed by SDS-PAGE. […]
( B) NCI-H460 cells were tr eated with J2 or NA49 (0, 1, 5, 10 and 20 μM) for 24 h, and cell lysates were
detected by Western blot analysis. […]

[1] = Log P by pH-metric method; type: physicochemical
A549 cells [2] = assay: MTT viability assay, A549; type: cell-based; conditions: Homo sapiens, 24 h
HCC827 cells [3] = assay: Cell death by PI staining / flow cytometry, HCC827; type: cell-based, human; conditions: NA 10 µM + gefitinib 0.01 µM, CompuSyn
Procedure: (§1) Cells were plated in 6-well culture plates at a density of 1 × 10^5 cells/well. Compounds were applied to the cells immediately after seeding. When cells were harvested, cells were washed once with 1× phosphate-buffered saline (PBS), dissociated using Trypsin-EDTA, and centrifuged at 13,000 rpm for 3 min at 4 °C. Next, 1 mL of 1× PBS was added to wash the pellet again. Finally, 1 mL of 1× PBS and 1 μg/mL of propidium iodide (PI) were added to each polystyrene round-bottom tube. Flow cytometric analysis was performed using a FACS flow cytometer (BD Bioscience). To measure cell death, 10^4 cells were counted, and PI-stained cells were analyzed. FACS analysis in accordance with the manufacturer’s instruction. […]
(§2) Table S1. CI values of NSCLC cell lines.
(§3) Cell line Combination drug NA 10 µM NA 20 µM
(§4) CI values were calculated from the data of percent inhibition of cell death by PI staining. Each CI
(§5) value was analyzed by CompuSyn software. […]

NCI-H460 cells [4] = assay: MTT viability assay, NCI-H460; type: cell-based, human; conditions: Homo sapiens, 24 h
Procedure: (§6) The human NSCLC cell lines of NCI-H460, A549, HCC827, PC9, NCI-H1650, and NCI-H1975 were obtained from the American Type Culture Collection (Rockville, MD, USA). Cells were cultured in RPMI 1640 medium containing 10% FBS, 2 mmol/L L-glutamine, and 100 units/mL of penicillin and streptomycin and maintained at 37 °C in a humidified incubator containing 5% CO2.
(§7) Cell viability against gefitinib-, cisplatin-, and NA49-induced toxicity was determined using an MTT (Amersham Pharmacia Biotech) assay in 96-well plates. […] Next, cells were incubated with 100 µL of 5 mg/mL 3-(4,5-dimethylthiazol-2-yl)-2,5-diphenyltetrazolium bromide (Sigma Aldrich, M5655) for 2 h. After the MTT mixture was removed, 100 µL of DMSO was added to each well, and absorbance at 540 nm was measured using an ELISA plate reader (TECAN, Twinfinite PRO).

HCC827 cells [5] = assay: MTT viability assay, HCC827; type: cell-based; conditions: Homo sapiens, 24 h
Procedure: as §6, §7

NCI-H460 xenograft = assay: NCI-H460 tumor xenograft in mice; type: in vivo, BALB/c nude mice; conditions: NA49 20 mg/kg IP every other day + cisplatin 2 mg/kg IP twice a week
Procedure: (§8) NCI-H460 single-cell suspension (1 × 10^6 cells) was injected subcutaneously into the hind legs of 6-week-old BALB/c nude mice (Orientbio, Korea). […] NCI-H1650 single-cell suspension (1 × 10^7 cells) was injected subcutaneously into the hind leg of 6-week-old NOD-SCID mice (Koatech, Korea). When tumors reached a minimal volume of 150 mm^3, xenograft mice were treated 7 times with J2 or NA49 by local regional application with or without gefitinib (5 mg/kg) by IP injection. For this, J2 or NA49 (20 mg/kg) was injected by IP every two days, and gefitinib was injected every three days. Tumor volumes were determined according to the formula (L × l^2)/2, by measuring tumor length (L) and width (l) with a caliper. Tumors were measured every other day and allowed to grow for 15 or 34 days. All procedures for animal experiments were in accordance with the guidelines by the Ewha Woman’s University Institutional Animal Care and Use Committee (IACUC, 18-006), Seoul, Korea.

NCI-H1975 cells [6] = assay: Cell death by PI staining / flow cytometry, NCI-H1975; type: cell-based, human; conditions: NA 10 µM + gefitinib 10 µM, CompuSyn
Procedure: as §1, §2, §3, §4, §5

PC9 cells [7] = assay: Cell death by PI staining / flow cytometry, PC9; type: cell-based, human; conditions: NA 10 µM + gefitinib 0.01 µM, CompuSyn
Procedure: as §1, §2, §3, §4, §5

NCI-H1975 cells [8] = assay: MTT viability assay, NCI-H1975; type: cell-based; conditions: Homo sapiens, 24 h
Procedure: as §6, §7

NCI-H460 cells [9] = assay: Cell death by PI staining / flow cytometry, NCI-H460; type: cell-based, human; conditions: H460, PI staining, CompuSyn
Procedure: as §1, §2, §3, §4, §5

PC9 cells [10] = assay: MTT viability assay, PC9; type: cell-based; conditions: Homo sapiens, PC-9, 24 h
Procedure: as §6, §7

NCI-H1650 cells [11] = assay: Cell death by PI staining / flow cytometry, NCI-H1650; type: cell-based, human; conditions: CompuSyn
Procedure: as §1, §2, §3, §4, §5

NCI-H1650 xenograft = assay: NCI-H1650 tumor xenograft in mice; type: in vivo, NOD-SCID mice; conditions: NA49 20 mg/kg IP every other day + Gef 5 mg/kg IP
Procedure: as §8

NCI-H1650 cells [12] = assay: MTT viability assay, NCI-H1650; type: cell-based; conditions: Homo sapiens, 24 h
Procedure: as §6, §7

A549 cells [13] = assay: Cell death by PI staining / flow cytometry, A549; type: cell-based, human; conditions: PI staining, CompuSyn
Procedure: as §1, §2, §3, §4, §5

Chain of CYP450 2C19 (P33261 whole entry): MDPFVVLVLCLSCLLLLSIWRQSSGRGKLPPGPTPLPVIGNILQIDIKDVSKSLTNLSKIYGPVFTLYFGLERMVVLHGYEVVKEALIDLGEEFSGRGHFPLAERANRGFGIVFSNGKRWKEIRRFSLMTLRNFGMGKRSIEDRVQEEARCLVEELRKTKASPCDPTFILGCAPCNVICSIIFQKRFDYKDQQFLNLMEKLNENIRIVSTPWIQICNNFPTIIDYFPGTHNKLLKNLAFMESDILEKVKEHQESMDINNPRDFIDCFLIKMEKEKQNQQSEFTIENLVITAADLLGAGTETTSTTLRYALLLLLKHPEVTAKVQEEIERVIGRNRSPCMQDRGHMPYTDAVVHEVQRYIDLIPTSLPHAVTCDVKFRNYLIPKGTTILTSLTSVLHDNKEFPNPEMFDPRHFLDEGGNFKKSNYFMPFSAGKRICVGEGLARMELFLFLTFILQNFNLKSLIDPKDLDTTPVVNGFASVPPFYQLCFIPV

With `Cc1cc(=O)c2c(O)cc(OCC3CS3)cc2o1` (centres unmarked) [J2] the IC50 (CYP450 2C19) was over 50 µM, the “HSP27 cross-linking activity (altered dimerization)” value (HSP27) was “altered dimerization was detected” and the logP [1] was 2.78.

With `COc1ccc(-c2coc3cc(OCC4CS4)ccc3c2=O)c(OC)c1` (centres unmarked) [NA49] the IC50 (A549 cells [2]) was 62.5 ± 0.9 µM, the “CI value (combination index)” value (HCC827 cells [3]) was 0.651 and the IC50 (CYP450 2C19) was over 50 µM. For the same compound, the IC50 (NCI-H460 cells [4]) was 38.1 ± 0.69 µM, the IC50 (HCC827 cells [5]) was 64.4 ± 2.31 µM and the “Tumor growth, combination with NA49 compared to cisplatin alone” value (NCI-H460 xenograft) was “greater reduction in tumor growth”. For the same compound, the “CI value (combination index)” value (NCI-H1975 cells [6]) was 0.392, the “CI value (combination index)” value (PC9 cells [7]) was 1.84 and the IC50 (NCI-H1975 cells [8]) was 89.4 ± 2.57 µM. For the same compound, the “CI value (combination index)” value (NCI-H460 cells [9]; NA 10 µM + cisplatin 3 µM) was 0.942, the “CI value (combination index)” value (NCI-H460 cells [9]; NA 20 µM + cisplatin 3 µM) was 0.969 and the “HSP27 cross-linking activity (altered dimerization)” value (HSP27) was “slightly less than J2”. For the same compound, the logP [1] was 3.04, the IC50 (PC9 cells [10]) was 73 ± 2.66 µM and the “CI value (combination index)” value (NCI-H1650 cells [11]; NA 10 µM + gefitinib 10 µM) was 0.828. The “CI value (combination index)” value (NCI-H1650 cells [11]; NA 10 µM + gefitinib 20 µM) was 0.487, the “Tumor growth, combination with NA49 compared to Gef alone” value (NCI-H1650 xenograft) was “greater reduction in tumor growth” and the IC50 (NCI-H1650 cells [12]) was 62.9 ± 1.58 µM. For the same compound, the “CI value (combination index)” value (A549 cells [13]; NA 10 µM + cisplatin 5 µM) was 0.698 and the “CI value (combination index)” value (A549 cells [13]; NA 20 µM + cisplatin 5 µM) was 0.823.
